The target in the assay is T1, MARK2 (Homo sapiens, UniProt Q7KZI7).
T1 construct: purchased Thermo Fisher Scientific (Life Technologies) SelectScreen
Put plainly: SelectScreen Z'LYTE. The class given is biochemical. An outline of the steps:
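NU5455 was profiled across the SelectScreen Broad panel of kinase activity and binding assays. Z'LYTE reactions such as CSF1R ran at apparent Km ATP, while the Adapta CAMK1 assay used ATP listed as 10. Values are given as percent.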

T1 sequence (Q7KZI7 whole entry): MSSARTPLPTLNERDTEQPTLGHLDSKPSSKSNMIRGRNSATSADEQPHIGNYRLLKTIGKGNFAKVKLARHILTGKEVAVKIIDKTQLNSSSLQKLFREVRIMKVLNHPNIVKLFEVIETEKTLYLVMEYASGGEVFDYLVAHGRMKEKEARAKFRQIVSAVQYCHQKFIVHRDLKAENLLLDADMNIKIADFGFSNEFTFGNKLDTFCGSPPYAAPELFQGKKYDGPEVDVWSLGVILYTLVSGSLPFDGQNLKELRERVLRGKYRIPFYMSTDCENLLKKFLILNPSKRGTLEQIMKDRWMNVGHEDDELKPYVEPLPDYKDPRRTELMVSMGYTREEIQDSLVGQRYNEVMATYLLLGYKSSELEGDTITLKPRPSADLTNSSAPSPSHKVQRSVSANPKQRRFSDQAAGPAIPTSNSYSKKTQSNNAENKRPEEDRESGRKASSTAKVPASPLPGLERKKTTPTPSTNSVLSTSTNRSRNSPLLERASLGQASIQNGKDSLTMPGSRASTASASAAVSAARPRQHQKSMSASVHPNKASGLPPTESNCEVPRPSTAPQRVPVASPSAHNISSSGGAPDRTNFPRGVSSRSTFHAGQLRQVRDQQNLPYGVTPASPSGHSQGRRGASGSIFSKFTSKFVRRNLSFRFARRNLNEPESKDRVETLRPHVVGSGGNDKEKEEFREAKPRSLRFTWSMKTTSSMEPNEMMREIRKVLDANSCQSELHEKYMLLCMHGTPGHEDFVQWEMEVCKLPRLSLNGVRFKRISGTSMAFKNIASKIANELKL

`CN(C(=O)CN1CCOCC1)c1ccc2sc3c(-c4cccc5c(=O)cc(N6CC7CCC(C6)O7)oc45)cccc3c2c1` [NU5455] came in with an inhibition at 1 µM of 0.1%.

For the origin of these results see article PMC6934184, “Selective DNA-PKcs inhibition extends the therapeutic index of localized radiotherapy and chemotherapy” (The Journal of Clinical Investigation, 2019).
